Bridges are numbered along the chain shown (N, C = ends). Where no end group is shown, it is not given here.
Columns and labels:
[1] = target: T1, kisspeptin receptor (Homo sapiens, UniProt Q969F8); experiment: Inotropic activity in human paced atrial strips
T1 construct: cryostat-cut sections of human (15 µm) or rat (10 µm) heart; from tissue; host or cells: human right atria (control, dilated cardiomyopathy, ischaemic heart disease), cryostat sections
Experimental: (§1) Paired rat or mouse atria, or 4 mm strips of human atrial appendage, were mounted in 10 ml organ baths containing oxygenated Krebs solution at 37°C as described previously. […] Experiments were terminated by the addition of 6.7 mM CaCl2 (final bath concentration 8.95 mM) and responses expressed as a % of this CaCl2 maximum. Radioligand binding study data were analyzed using the iterative, non-linear curve fitting programs EBDA and LIGAND in the KELL package (Biosoft, Cambridge, UK). Pooled KD, BMAX and Hill slopes (nH) were expressed as mean±SEM and normalized to protein concentrations. […] Where appropriate, values were compared by one-way analysis of variance (ANOVA). In all cases P<0.05 was considered statistically significant and n-values were the number of animals or patients from which data were obtained.

[2] = target: kisspeptin receptor (Rattus norvegicus, UniProt Q924U1); experiment: Inotropic activity in rat paced paired atria; design: Paired rat or mouse atria; from tissue; host or cells: rat paired atria; settings: read-out: EMAX (maximum positive inotropic response)
kisspeptin receptor (Rattus norvegicus, UniProt Q924U1), sequence (Q924U1 whole entry): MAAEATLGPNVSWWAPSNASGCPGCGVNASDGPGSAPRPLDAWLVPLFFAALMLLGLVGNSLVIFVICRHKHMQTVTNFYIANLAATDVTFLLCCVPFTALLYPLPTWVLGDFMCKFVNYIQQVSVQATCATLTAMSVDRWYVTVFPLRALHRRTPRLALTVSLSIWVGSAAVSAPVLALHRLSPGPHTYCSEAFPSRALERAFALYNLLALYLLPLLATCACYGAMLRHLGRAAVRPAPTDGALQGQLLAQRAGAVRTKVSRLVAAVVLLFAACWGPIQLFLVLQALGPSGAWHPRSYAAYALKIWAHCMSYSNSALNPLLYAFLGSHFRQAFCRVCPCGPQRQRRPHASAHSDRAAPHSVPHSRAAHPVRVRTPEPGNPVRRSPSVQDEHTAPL
Experimental: as §1

[3] = test system: endothelium-denuded rat aortic rings; experiment: Vasoconstrictor activity in endothelium-denuded rat aorta; settings: mean ± SEM, ET-1 n = 7, KP-10 tissues from 4 animals, KP-54 tissues from 3 animals
Experimental: Rat thoracic aorta was cleaned of connective tissue and cut into 4 mm rings and the endothelial layer removed by gentle rubbing. Tissues were set to a basal tension at which the maximum response to 100 mM KCl was generated and subsequent responses to kisspeptins were expressed as % of this KCl response. Aortic rings were then contracted with 10 µM phenylephrine and 1 µM ACh was added; a reduction in the phenylephrine response of <10% was taken as evidence of removal of endothelium. […] Experiments were terminated by the addition of 100 mM KCl and agonist responses were expressed as a % of this KCl maximum.
Radioligand binding study data were analyzed using the iterative, non-linear curve fitting programs EBDA and LIGAND in the KELL package (Biosoft, Cambridge, UK). Pooled KD, BMAX and Hill slopes (nH) were expressed as mean±SEM and normalized to protein concentrations. In vitro pharmacology data agonist responses were expressed as %CaCl2 response in the paced atrial tissues and %KCl in the vasoconstrictor studies and data were fitted to a four parameter logistic equation using an iterative curve-fitting program (FigSys, Biosoft, Cambridge, UK) to obtain values for potency (pD2: the negative logarithm to the base 10 of the EC50) and maximum response (EMAX: %CaCl2 or %KCl, respectively) expressed as mean±SEM. Where appropriate, values were compared by one-way analysis of variance (ANOVA). In all cases P<0.05 was considered statistically significant and n-values were the number of animals or patients from which data were obtained.

T1 sequence (Q969F8 whole entry): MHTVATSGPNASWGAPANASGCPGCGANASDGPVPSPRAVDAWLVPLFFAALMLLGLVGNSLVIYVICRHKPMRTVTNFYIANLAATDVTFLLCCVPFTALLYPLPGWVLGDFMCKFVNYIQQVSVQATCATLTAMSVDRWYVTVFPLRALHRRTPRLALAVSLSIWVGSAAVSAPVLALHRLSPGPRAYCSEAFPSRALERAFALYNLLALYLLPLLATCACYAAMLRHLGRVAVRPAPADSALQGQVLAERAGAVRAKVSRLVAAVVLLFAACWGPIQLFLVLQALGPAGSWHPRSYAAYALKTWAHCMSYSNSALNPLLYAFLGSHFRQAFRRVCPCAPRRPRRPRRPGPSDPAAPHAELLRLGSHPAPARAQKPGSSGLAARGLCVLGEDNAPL

Compound	EC50 [1] [pM]	Emax ([1]; % of CaCl2 maximum (8.95 mM final), human atrial strips, mean ± SEM, n = 5, read-out: EMAX (maximum positive inotropic response)) [%]	Emax [2] [%]	EMAX (maximum vasoconstrictor response) ([3]; % of 100 mM KCl maximum, endothelium-denuded rat aorta) [% KCl]	pD2 (vasoconstriction) ([3]; endothelium-denuded rat thoracic aortic rings, KP-10, KP-54 10^−12–3×10^−9 M, ET-1 10^−10–3×10^−7 M)
CC(C)C[C@H](NC(=O)CNC(=O)[C@H](Cc1ccccc1)NC(=O)[C@H](CO)NC(=O)[C@H](CC(N)=O)NC(=O)[C@H](Cc1c[nH]c2ccccc12)NC(=O)[C@H](CC(N)=O)NC(=O)[C@@H](N)Cc1ccc(O)cc1)C(=O)N[C@@H](CCCNC(=N)N)C(=O)N[C@@H](Cc1ccccc1)C(N)=O [KP-10]	102	59 ± 10	31 ± 5	–	–
ET-1: ET-1 (human) from Peptide Institute, control vasoconstrictor (CSCSSLMDKECVYFCHLDIIW; disulfide 1-15, 3-11; ends not checked; UniProt P05305 53-73, looked up)	–	–	–	99±1	8.13±0.11

— publication PMC3222648, “Inotropic Action of the Puberty Hormone Kisspeptin in Rat, Mouse and Human: Cardiovascular Distribution and Characteristics of the Kisspeptin Receptor” (PLoS ONE, 2011)
